Reference: US9556165B2 (priority 2012, dated 2017)
In brackets after ≈: the same amount, converted by molar mass. Read-outs that look alike come from different tables or passages of the source.

What was measured:
Format in all cases: cell-based
[1] = test system: E. coli ATCC25922; assay: MIC determination, broth microdilution (CLSI); conditions: for MIC: Escherichia coli, ATCC25922, strain 1
[2] = test system: K. pneumoniae 60; assay: MIC determination, broth microdilution (CLSI); conditions: for MIC: Klebsiella pneumoniae, 60, strain 2
[3] = test system: E. cloacae 34654; assay: MIC determination, broth microdilution (CLSI); conditions: for MIC: Enterobacter cloacae, 34654, strain 3
[4] = test system: C. freundii K21/3034; assay: MIC determination, broth microdilution (CLSI); conditions: for MIC: Citrobacter freundii, K21/3034, strain 4
[5] = test system: M. morganii 126/3048; assay: MIC determination, broth microdilution (CLSI); conditions: for MIC: Morganella morganii, 126/3048, strain 5
[6] = test system: P. aeruginosa PAO1; assay: MIC determination, broth microdilution (CLSI); conditions: for MIC: Pseudomonas aeruginosa, PAO1, strain 6
[7] = test system: P. aeruginosa 2297 (AmpC wt); assay: MIC determination, broth microdilution (CLSI); conditions: for MIC: Pseudomonas aeruginosa, strain 7
[8] = test system: P. aeruginosa 2297-con (AmpC derepressed); assay: MIC determination, broth microdilution (CLSI); conditions: for MIC: Pseudomonas aeruginosa, read-out: strain 8 MIC, strain 8
[9] = test system: A. baumannii ATCC15308; assay: MIC determination, broth microdilution (CLSI); conditions: for MIC: Acinetobacter baumannii, ATCC15308, strain 9
[10] = test system: S. maltophilia ICB7569; assay: MIC determination, broth microdilution (CLSI); conditions: for MIC: Stenotrophomonas maltophilia, ICB7569, strain 10
[11] = test system: S. aureus 133; assay: MIC determination, broth microdilution (CLSI)
[12] = test system: H. influenzae ATCC 49247; assay: MIC determination, broth microdilution (CLSI); conditions: broth microdilution; for MIC: Haemophilus influenzae, ATCC49247, strain 12, read-out: MIC strain 12 (H. influenzae ATCC 49247)
[13] = test system: S. pneumoniae 113; assay: MIC determination, broth microdilution (CLSI); conditions: broth microdilution; for MIC: Streptococcus pneumoniae, 113, strain 13, read-out: MIC strain 13 (S. pneumoniae 113)
[14] = test system: B. fragilis 6688; assay: MIC determination, broth microdilution (CLSI); conditions: broth microdilution; for MIC: Bacteroides fragilis, 6688, strain 15, read-out: MIC strain 15 (B. fragilis 6688)
[15] = test system: C. perfringens DSM756; assay: microbe, parasite or virus in culture; conditions: broth microdilution; for MIC: Clostridium perfringens, DSM756, read-out: MIC strain 16 (C. perfringens DSM756), strain 16
[16] = test system: E. coli J62; assay: MIC determination, broth microdilution (CLSI); conditions: broth microdilution; for MIC: Escherichia coli, J62, strain 17, read-out: MIC strain 17 (E. coli J62)
[17] = test system: E. coli J62-TEM-3; assay: MIC determination, broth microdilution (CLSI); conditions: broth microdilution; for MIC: Escherichia coli, J62TEM3, read-out: MIC strain 18 (E. coli J62-TEM-3), strain 18
[18] = test system: Bacteria; assay: MIC determination in combination with β-lactamase inhibitors (constant 4 μg/mL)
[19] = Staphylococcus aureus, 133, strain 11, read-out: strain 11 MIC
[20] = Staphylococcus aureus, 133, strain 14, broth microdilution, read-out: MIC strain 14 (S. aureus 133)

SMILES | strain 1 MIC [1] | strain 2 MIC [2] | strain 3 MIC [3] [µg/mL] | strain 4 MIC [4] | strain 6 MIC [6] [µg/mL] | strain 9 MIC [9] [µg/mL] | MIC [11, 19] [µg/mL] | MIC [14] [µg/mL] | MIC [15] [µg/mL] | MIC strain 17 (E. coli J62) [16] [µg/mL] | MIC [17] [µg/mL] | MIC strain 19 (E. coli J62-TEM-3 + 4 μg/mL clavulanic acid) [18] | MIC strain 20 (E. coli J62-TEM-3 + 4 μg/mL sulbactam) [18] | MIC strain 21 (E. coli J62-TEM-3 + 4 μg/mL tazobactam) [18] | MIC [12] [µg/mL] | MIC [13] [µg/mL] | MIC [5] [µg/mL] | MIC [7] [µg/mL] | MIC [8] [µg/mL] | MIC [10] [µg/mL] | also measured
CC1(C)[C@H](NC(=O)/C(=N\OC(COc2ccc(C(=N)NCCN)cc2)C(=O)O)c2csc(N)n2)C(=O)N1OS(=O)(=O)O (mixture of isomers) [Example 44A, (2R and 2S)-3-{4-[N-(2-Aminoethyl)carbamimidoyl]phenoxy}-2-({[(1Z)-1-(2-amino-1,3-thiazol-4-yl)-2-{[(3S)-2,2-dimethyl-4-oxo-1-(sulfooxy)azetidin-3-yl]amino}-2-oxoethylidene]amino}oxy)propanoic acid] | ≦0.063 mg/L | ≦0.063 mg/L | 0.125 | ≦0.063 mg/L | 1 | 2 | ≤ 0.063 | 8 | 1 | 0.125 | 2 | ≦0.063 mg/L | ≦0.063 mg/L | ≦0.063 mg/L |  |  |  |  |  |  | strain 5 MIC [5]: 0.125 µg/mL; strain 7 MIC [7]: 2 µg/mL; strain 8 MIC [8]: 1 µg/mL; strain 10 MIC [10]: 2 µg/mL; MIC [11, 20]: 32 µg/mL; MIC strain 12 (H. influenzae ATCC 49247) [12]: ≦0.063 mg/L; MIC strain 13 (S. pneumoniae 113) [13]: 0.5 µg/mL
CC1(C)[C@H](NC(=O)/C(=N\OC(CO)COc2ccc(C(=N)N)cc2)c2csc(N)n2)C(=O)N1OS(=O)(=O)O (mixture of isomers) [Example 45B, (2Z)-2-(2-Amino-1,3-thiazol-4-yl)-2-({[(2R and 2S)-1-(4-carbamimidoylphenoxy)-3-hydroxypropan-2-yl]oxy}imino)-N-[(3S)-2,2-dimethyl-4-oxo-1-(sulfooxy)azetidin-3-yl]ethanamide] | 2 µg/mL | 2 µg/mL | 4 | 1 µg/mL | 16 | 4 | ≤ 0.063 | 4 | 2 | 4 |  | 2 µg/mL | 4 µg/mL | 4 µg/mL | 0.5 | 0.125 |  |  |  |  | strain 5 MIC [5]: 4 µg/mL; strain 7 MIC [7]: 32 µg/mL; strain 8 MIC [8]: 32 µg/mL; strain 10 MIC [10]: 32 µg/mL; MIC strain 14 (S. aureus 133) ([11]; strain 14, broth microdilution): 16 µg/mL; MIC strain 18 (E. coli J62-TEM-3) [17]: 16 µg/mL
CC1(C)[C@H](NC(=O)/C(=N\OC(COc2ccc(C(=N)N)cc2)CC(=O)O)c2csc(N)n2)C(=O)N1OS(=O)(=O)O (mixture of isomers) [Example 46, 3-({[(1Z)-1-(2-Amino-1,3-thiazol-4-yl)-2-{[(3S)-2,2-dimethyl-4-oxo-1-(sulfooxy)azetidin-3-yl]amino}-2-oxoethylidene]amino}oxy)-4-(4-carbamimidoylphenoxy)butanoic acid] |  |  |  |  |  |  |  | 32 | 4 |  | 16 | 1 µg/mL | 1 µg/mL | 1 µg/mL | 0.25 | 1 | 1 | 32 | 32 | 8 | MIC [1]: 2 µg/mL; MIC [2]: 1 µg/mL; MIC [3]: 2 µg/mL; MIC [4]: 1 µg/mL; MIC [6]: 8 µg/mL; MIC [9]: 16 µg/mL; MIC [16]: 2 µg/mL
CC1(C)[C@H](NC(=O)/C(=N\OCC(Oc2ccc(C(=N)N)cc2)C(=O)O)c2csc(N)n2)C(=O)N1OS(=O)(=O)O (single isomer, unassigned) [Example 87B] | 0.5 µg/mL | 0.5 µg/mL | 1 | 0.5 µg/mL | 16 | 16 |  |  |  | 1 (≈ 1.71 µM) |  | 0.5 µg/mL | 1 µg/mL | 2 µg/mL |  |  |  | 32 (≈ 54.6 µM) | 32 (≈ 54.6 µM) | 16 (≈ 27.3 µM) | strain 5 MIC [5]: 0.25 µg/mL; strain 11 MIC ([11]; strain 11): ≦0.063 mg/L; MIC strain 12 (H. influenzae ATCC 49247) [12]: 0.125 µg/mL (≈ 0.213 µM); MIC strain 13 (S. pneumoniae 113) [13]: 1 µg/mL (≈ 1.71 µM); MIC strain 15 (B. fragilis 6688) ([14]; strain 15): 16 µg/mL (≈ 27.3 µM); MIC strain 16 (C. perfringens DSM756) ([15]; strain 16): 16 µg/mL (≈ 27.3 µM); MIC strain 18 (E. coli J62-TEM-3) [17]: 32 µg/mL (≈ 54.6 µM)
CC1(C)[C@H](NC(=O)/C(=N\O[C@@H](COc2ccc(C(=N)NC3CC3N)cc2)C(=O)O)c2csc(N)n2)C(=O)N1OS(=O)(=O)O (single isomer, unassigned) [Example 100A] | 0.125 µg/mL | 0.25 µg/mL | 0.125 | 0.125 µg/mL | 2 | 8 | ≤ 0.063 | 8 (≈ 12.5 µM) | 2 (≈ 3.12 µM) | 0.25 (≈ 0.39 µM) | 32 (≈ 49.9 µM) | 0.125 µg/mL | 0.125 µg/mL | 0.25 µg/mL | ≤ 0.063 | 0.5 (≈ 0.78 µM) | ≤ 0.063 |  |  |  | strain 7 MIC [7]: 4 µg/mL; strain 8 MIC [8]: 4 µg/mL; strain 10 MIC [10]: 8 µg/mL
CC1(C)[C@H](NC(=O)/C(=N\OC(COc2ccc(C(=N)NC3CCCNC3)cc2)C(=O)O)c2csc(N)n2)C(=O)N1OS(=O)(=O)O (stereo in doubt) [Example 89, (2R)-2-({[(1Z)-1-(2-Amino-1,3-thiazol-4-yl)-2-{[(3S)-2,2-dimethyl-4-oxo-1-(sulfooxy)-azetidin-3-yl]amino}-2-oxoethylidene]amino}oxy)-3-(4-{N-[(3R)-piperidin-3-yl]carbamimidoyl}phenoxy)propanoic acid] |  |  |  |  |  |  |  | 8 (≈ 12 µM) | 1 (≈ 1.5 µM) |  | 4 (≈ 5.98 µM) | ≦0.063 mg/L | ≦0.063 mg/L | 0.125 µg/mL | ≤ 0.063 | 0.5 (≈ 0.748 µM) | ≤ 0.063 | 1 (≈ 1.5 µM) | 1 (≈ 1.5 µM) | 4 (≈ 5.98 µM) | MIC [1]: 0.125 µg/mL (≈ 0.187 µM); MIC [2]: 0.25 µg/mL (≈ 0.374 µM); MIC [3]: 0.125 µg/mL (≈ 0.187 µM); MIC [4]: 0.125 µg/mL (≈ 0.187 µM); MIC [6]: 1 µg/mL (≈ 1.5 µM); MIC [9]: 1 µg/mL (≈ 1.5 µM); MIC [11, 20]: 32 µg/mL (≈ 47.9 µM); MIC [16]: 0.125 µg/mL (≈ 0.187 µM)
CN(C)CCNC(=N)c1ccc(OCCO/N=C(\C(=O)N[C@@H]2C(=O)N(OS(=O)(=O)O)C2(C)C)c2csc(N)n2)cc1 [Example 40, (2Z)-2-(2-Amino-1,3-thiazol-4-yl)-2-{[2-(4-{N-[2-(dimethylamino)ethyl]carbamimidoyl}phenoxy)ethoxy]imino}-N-[(3S)-2,2-dimethyl-4-oxo-1-(sulfooxy)azetidin-3-yl]ethanamide] |  |  |  |  |  |  | ≤ 0.063 | 4 (≈ 6.53 µM) | 2 (≈ 3.26 µM) |  | 8 (≈ 13.1 µM) | 0.125 µg/mL | 0.25 µg/mL | 0.25 µg/mL | ≤ 0.063 | ≤ 0.063 | 0.5 (≈ 0.816 µM) | 8 (≈ 13.1 µM) | 4 (≈ 6.53 µM) | 16 (≈ 26.1 µM) | MIC [1]: 0.125 µg/mL (≈ 0.204 µM); MIC [2]: 0.25 µg/mL (≈ 0.408 µM); MIC [3]: 0.5 µg/mL (≈ 0.816 µM); MIC [4]: 0.125 µg/mL (≈ 0.204 µM); MIC [6]: 4 µg/mL (≈ 6.53 µM); MIC [9]: 2 µg/mL (≈ 3.26 µM); MIC [16]: 0.25 µg/mL (≈ 0.408 µM)
